Reference: ChEMBL document CHEMBL1201862, “PubChem BioAssay data set” (2004)
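Where inhibition never reached the appropriate level, the endpoint shown equals the highest concentration tested. Otherwise, values were interpolated linearly from a five-concentration, 48-hour dose response in 96-well plates. GI50 is the concentration that inhibits growth by half.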 Activity calls are given as the source filed them. Rule as the data show it: active = GI50 up to about 1.1 µM and inactive = higher.

Columns and labels:
Assay in all cases: NCI-60 cell line screen, 48 h
MDA-MB-435 = test system: MDA-MB-435
786-0 = test system: 786-0
DU-145 = test system: DU-145
Hs-578T = test system: Hs-578T
M19-MEL = test system: M19-MEL
HOP-18 = test system: HOP-18
DLD-1 = test system: DLD-1
LXFL 529 = test system: LXFL 529
RXF 631 = test system: RXF 631

| SMILES | GI50 (MDA-MB-435) | GI50 (786-0) | GI50 (DU-145) | GI50 (Hs-578T) | GI50 (M19-MEL) | GI50 (HOP-18) | GI50 (DLD-1) | GI50 (LXFL 529) | GI50 (RXF 631) |
| --- | --- | --- | --- | --- | --- | --- | --- | --- | --- |
| CSC1=N/C(=C\c2ccccc2)C(=O)N1CN1CCCCC1 | 49.7 µM (inactive) | 42.2 µM (inactive) | > 100 µM (inactive) | 36.4 µM (inactive) |  |  |  |  |  |
| Cc1c(-c2cc3n(n2)C(c2cccs2)C(C#N)=C(c2ccccc2)N3)c(=O)n(-c2ccccc2)n1C (stereo not drawn) |  |  |  |  | > 100 µM (inactive) | > 100 µM (inactive) | > 100 µM (inactive) |  |  |
| CNc1cc2c(c3ccccc13)C(CCl)CN2C(=O)c1cc2cc(OC)c(OC)c(OC)c2[nH]1 (stereo not drawn) | 0.00309 µM (active) | 0.000809 µM (active) | 0.000442 µM (active) | 0.00802 µM (active) |  |  |  |  |  |
| Cc1ccc2nc(C(C)C)c(=O)[nH]c2c1 | > 100 µM (inactive) | 52.7 µM (inactive) | > 100 µM (inactive) | 42.3 µM (inactive) |  |  |  |  |  |
| O=c1[nH]c2ccc([N+](=O)[O-])cc2nc1/C(=N/Nc1ccccc1)C(O)c1ccco1 (stereo not drawn) |  | > 100 µM (inactive) |  |  | 85.9 µM (inactive) |  | > 100 µM (inactive) | 59.8 µM (inactive) |  |
| CCOP(=O)(OCC)C1CC(C)OC1=O (stereo not drawn) |  | > 100 µM (inactive) |  |  | > 100 µM (inactive) |  | > 100 µM (inactive) | > 100 µM (inactive) | > 100 µM (inactive) |
| O=C(N/N=C/c1cc(-c2ccccc2Cl)c(-c2ccccc2Cl)o1)c1ccncc1 |  | > 100 µM (inactive) |  |  | > 100 µM (inactive) |  | > 100 µM (inactive) | 96.6 µM (inactive) | > 100 µM (inactive) |
| C/C(=N\NC(=O)c1ccncc1)c1cccc(C(F)(F)F)c1 |  |  | > 10 µM (inactive) | 1.75 µM (inactive) |  |  |  |  |  |
| CCN(CC)CCSc1nc(-c2c[nH]c3nc(C)ccc3c2=O)n[nH]1 | > 100 µM (inactive) | > 100 µM (inactive) | > 100 µM (inactive) | > 100 µM (inactive) |  |  |  |  |  |
| COc1c(C(=O)/C(=N/Nc2ccccc2)C(C)=O)c(O)c(OC)c2occc12 | 34 µM (inactive) | > 100 µM (inactive) | > 100 µM (inactive) | 37.5 µM (inactive) |  |  |  |  |  |
| N=C(N)c1csc([C@@H]2O[C@H](CO)[C@@H](O)[C@H]2O)n1 |  |  |  |  | > 100 µM (inactive) | 59.7 µM (inactive) | > 100 µM (inactive) | > 100 µM (inactive) | > 100 µM (inactive) |
| OCc1cc2ccncc2c2c1[nH]c1ccccc12 |  |  |  |  |  | 2.52 µM (inactive) | 3.96 µM (inactive) | 4.58 µM (inactive) |  |
| CC1=NN(C(=O)c2ccccc2)C(=O)C1/N=N/c1ccccc1C(=O)O (stereo not drawn) |  |  |  |  | 5.92 µM (inactive) | 99.1 µM (inactive) | 6.89 µM (inactive) |  |  |
| Cc1c2cc[n+](C)cc2c(COC2OC(CO)C(O)C2O)c2c3ccccc3n(C)c12 (stereo not drawn) |  |  |  |  | 65.5 µM (inactive) | 27.5 µM (inactive) | > 100 µM (inactive) |  |  |
| N#C/C(=C/NC(=S)c1ccncc1)C(N)=O | > 100 µM (inactive) | > 100 µM (inactive) | > 100 µM (inactive) |  |  |  |  |  |  |
| CNC(=O)OCc1nc(SC)n(C)c1CO |  |  |  |  | > 100 µM (inactive) | > 79.3 µM (inactive) | > 100 µM (inactive) |  |  |
| O=S(=O)(/N=C(\NO)Nc1ccc(Cl)cc1)c1ccc(-c2ccccn2)s1 | 27.5 µM (inactive) |  | > 100 µM (inactive) | 28.8 µM (inactive) |  |  |  |  |  |
| O=C1CC2(CCC(O)(c3ccccc3)C(C(=O)c3ccccc3)C2)C(=O)c2ccccc2N1 (stereo not drawn) | > 100 µM (inactive) |  | > 100 µM (inactive) | > 100 µM (inactive) |  |  |  |  |  |
| CCc1c(C)c(C#N)c(=S)n(C2OC(COC(C)=O)C(OC(C)=O)C(OC(C)=O)C2OC(C)=O)c1-c1ccccc1 (stereo not drawn) | > 31.6 µM (inactive) | 20.7 µM (inactive) | > 31.6 µM (inactive) | 20.7 µM (inactive) |  |  |  |  |  |
| Cc1nnc2n1-c1ccccc1N(Cc1ccccc1)CC2 | 51.4 µM (inactive) | 87.7 µM (inactive) | 70.3 µM (inactive) | 58.9 µM (inactive) |  |  |  |  |  |
